Like-named read-outs stand apart in the source and are kept apart here.
Tests used:
Format in all cases: cell-based
hKv1.3 = hKv1.3 (Homo sapiens, UniProt P22001); experiment: cell-based; conditions: Kv1.3 (IWQ) IC50 (nM, Avg)
[1] = system: IL-2 secretion from T cells in human whole blood; conditions: read-out: WB (IL-2) IC50 (nM, Avg)
[2] = system: IFN-g secretion from T cells in human whole blood
[3] = read-out: WB (IFNg) IC50 (nM, Avg)

hKv1.3, sequence (P22001 whole entry): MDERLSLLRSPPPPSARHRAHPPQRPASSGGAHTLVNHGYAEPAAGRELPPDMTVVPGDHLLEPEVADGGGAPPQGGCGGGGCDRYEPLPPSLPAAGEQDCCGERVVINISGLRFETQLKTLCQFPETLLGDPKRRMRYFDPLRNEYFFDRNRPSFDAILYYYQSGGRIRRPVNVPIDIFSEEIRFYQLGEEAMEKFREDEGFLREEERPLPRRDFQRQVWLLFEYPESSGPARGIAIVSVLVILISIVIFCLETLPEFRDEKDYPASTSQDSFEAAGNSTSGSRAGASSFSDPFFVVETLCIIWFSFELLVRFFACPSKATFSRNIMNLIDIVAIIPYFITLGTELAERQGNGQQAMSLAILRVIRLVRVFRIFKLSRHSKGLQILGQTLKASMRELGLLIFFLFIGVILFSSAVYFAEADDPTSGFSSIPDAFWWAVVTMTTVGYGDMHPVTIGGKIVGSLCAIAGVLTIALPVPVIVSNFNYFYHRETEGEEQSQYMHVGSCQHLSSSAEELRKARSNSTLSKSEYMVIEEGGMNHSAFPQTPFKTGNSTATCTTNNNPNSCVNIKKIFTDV

| SMILES | IC50 (hKv1.3) [nM] | IC50 [1] [nM] | IC50 [2, 3] [nM] | IC50 ([2]; read-out: WB (IFNg) IC5- (nM, Avg)) [nM] |
| --- | --- | --- | --- | --- |
| CC[C@H](C)[C@@H]1NC(=O)[C@@H](NC(=O)[C@H](CO)NC(=O)[C@@H](N)CCCNC(=N)N)CSSC[C@@H](C(N)=O)NC(=O)[C@H]([C@@H](C)O)NC(=O)CNC(=O)[C@@H]2CSSC[C@@H]3NC(=O)[C@H](CCCCN)NC(=O)[C@H](Cc4ccccc4)NC(=O)[C@H](C)NC(=O)[C@H]([C@@H](C)O)NC(=O)[C@H](CSSC[C@H](NC(=O)[C@H](Cc4ccccc4)NC(=O)[C@H](CO)NC(=O)[C@H](CC(C)C)NC(=O)[C@H](CCCNC(=N)N)NC(=O)[C@H](Cc4ccc(O)cc4)NC(=O)[C@H](CCCCN)NC(=O)[C@H](Cc4c[nH]c5ccccc45)NC(=O)[C@H](CO)NC(=O)[C@H](Cc4c[nH]cn4)NC(=O)[C@H](CCCCN)NC3=O)C(=O)N[C@@H](CCCNC(=N)N)C(=O)N[C@@H](CCCCN)C(=O)N[C@@H]([C@@H](C)O)C(=O)N2)NC(=O)[C@H](CCCNC(=N)N)NC(=O)[C@H](CO)NC(=O)[C@H](CCCCN)NC(=O)[C@@H]2CCCN2C(=O)[C@H]([C@@H](C)CC)NC(=O)[C@H]([C@@H](C)O)NC(=O)[C@H](CC(=O)O)NC1=O [[Lys16, Trp21]ShK-amide] | 0.782 | 3.86 | 3.19 |  |
| CC[C@@H]1NC(=O)[C@H](CO)NC(=O)[C@H](Cc2c[nH]cn2)NC(=O)[C@H](CCCCN)NC(=O)[C@@H]2CSSC[C@@H]3NC(=O)[C@H]([C@@H](C)O)NC(=O)[C@H](CCCCN)NC(=O)[C@H](CCCNC(=N)N)NC(=O)[C@H](CSSC[C@H](NC(=O)[C@H](CCCNC(=N)N)NC(=O)[C@H](CO)NC(=O)[C@H](CCCCN)NC(=O)[C@@H]4CCCN4C(=O)[C@H]([C@@H](C)CC)NC(=O)[C@H]([C@@H](C)O)NC(=O)[C@H](CC(=O)O)NC(=O)[C@H](CCC(=O)O)NC(=O)[C@@H](NC(=O)[C@H](CO)NC(=O)[C@@H](N)CCCNC(=N)N)CSSC[C@@H](C(N)=O)NC(=O)[C@H]([C@@H](C)O)NC(=O)CNC3=O)C(=O)N[C@@H]([C@@H](C)O)C(=O)N[C@@H](C)C(=O)N[C@@H](Cc3ccccc3)C(=O)N[C@@H](CCCCN)C(=O)N2)NC(=O)[C@H](Cc2ccccc2)NC(=O)[C@H](CO)NC(=O)[C@H](CC(C)C)NC(=O)[C@H](CCCNC(=N)N)NC(=O)[C@H](Cc2ccc(O)cc2)NC(=O)[C@H](CCCCN)NC1=O [[Glu4, Lys16,Abu21]ShK-amide] | 0.33 | 1.11 | 1.76 |  |
| CCC[C@@H]1NC(=O)[C@H](CO)NC(=O)[C@H](Cc2c[nH]cn2)NC(=O)[C@H](CCCCN)NC(=O)[C@@H]2CSSC[C@@H]3NC(=O)[C@H]([C@@H](C)O)NC(=O)[C@H](CCCCN)NC(=O)[C@H](CCCNC(=N)N)NC(=O)[C@H](CSSC[C@H](NC(=O)[C@H](CCCNC(=N)N)NC(=O)[C@H](CO)NC(=O)[C@H](CCCCN)NC(=O)[C@@H]4CCCN4C(=O)[C@H]([C@@H](C)CC)NC(=O)[C@H]([C@@H](C)O)NC(=O)[C@H](CC(=O)O)NC(=O)[C@H]([C@@H](C)CC)NC(=O)[C@@H](NC(=O)[C@H](CO)NC(=O)[C@@H](N)CCCNC(=N)N)CSSC[C@@H](C(=O)N[C@H](C(N)=O)[C@@H](C)O)NC(=O)[C@H]([C@@H](C)O)NC(=O)CNC3=O)C(=O)N[C@@H]([C@@H](C)O)C(=O)N[C@@H](C)C(=O)N[C@@H](Cc3ccccc3)C(=O)N[C@@H](CCCCN)C(=O)N2)NC(=O)[C@H](Cc2ccccc2)NC(=O)[C@H](CO)NC(=O)[C@H](CC(C)C)NC(=O)[C@H](CCCNC(=N)N)NC(=O)[C@H](Cc2ccc(O)cc2)NC(=O)[C@H](CCCCN)NC1=O [[Lys16,Nva21]ShK-Thr-amide] | 0.03 | 0.385 | 0.702 |  |
| CC[C@H](C)[C@@H]1NC(=O)[C@@H](NC(=O)[C@H](CO)NC(=O)[C@H](C)N)CSSC[C@@H](C(=O)O)NC(=O)[C@H]([C@@H](C)O)NC(=O)CNC(=O)[C@@H]2CSSC[C@@H]3NC(=O)[C@H](CCC(N)=O)NC(=O)[C@H](Cc4ccccc4)NC(=O)[C@H](C)NC(=O)[C@H]([C@@H](C)O)NC(=O)[C@H](CSSC[C@H](NC(=O)[C@H](Cc4ccccc4)NC(=O)[C@H](CO)NC(=O)[C@H](CC(C)C)NC(=O)[C@H](CCCNC(=N)N)NC(=O)[C@H](Cc4ccc(O)cc4)NC(=O)[C@H](CCCCN)NC(=O)[C@H](CCSC)NC(=O)[C@H](CO)NC(=O)[C@H](Cc4c[nH]cn4)NC(=O)[C@H](CCCCN)NC3=O)C(=O)N[C@@H](CCCNC(=N)N)C(=O)N[C@@H](CCCCN)C(=O)N[C@@H]([C@@H](C)O)C(=O)N2)NC(=O)[C@H](CCCNC(=N)N)NC(=O)[C@H](CO)NC(=O)[C@H](CCCCN)NC(=O)[C@@H]2CCCN2C(=O)[C@H]([C@@H](C)CC)NC(=O)[C@H]([C@@H](C)O)NC(=O)[C@H](CC(=O)O)NC1=O [[Ala1]ShK] | 0.168 | 0.073 | 0.102 |  |
| CC[C@H](C)[C@@H]1NC(=O)[C@@H](NC(=O)[C@H](CO)NC(=O)[C@@H](N)CCCNC(=N)N)CSSC[C@@H](C(=O)O)NC(=O)[C@H]([C@@H](C)O)NC(=O)CNC(=O)[C@@H]2CSSC[C@@H]3NC(=O)[C@H](Cc4cccc5ccccc45)NC(=O)[C@H](Cc4ccccc4)NC(=O)[C@H](C)NC(=O)[C@H]([C@@H](C)O)NC(=O)[C@H](CSSC[C@H](NC(=O)[C@H](Cc4ccccc4)NC(=O)[C@H](CO)NC(=O)[C@H](CC(C)C)NC(=O)[C@H](CCCNC(=N)N)NC(=O)[C@H](Cc4ccc(O)cc4)NC(=O)[C@H](CCCCN)NC(=O)[C@H](CCSC)NC(=O)[C@H](CO)NC(=O)[C@H](Cc4c[nH]cn4)NC(=O)[C@H](CCCCN)NC3=O)C(=O)N[C@@H](CCCNC(=N)N)C(=O)N[C@@H](CCCCN)C(=O)N[C@@H]([C@@H](C)O)C(=O)N2)NC(=O)[C@H](CCCNC(=N)N)NC(=O)[C@H](CO)NC(=O)[C@H](CCCCN)NC(=O)[C@@H]2CCCN2C(=O)[C@H]([C@@H](C)CC)NC(=O)[C@H]([C@@H](C)O)NC(=O)[C@H](CC(=O)O)NC1=O [[1-Nal16]ShK] | 0.699 | 28.9 | 9.55 |  |
| CC[C@H](C)[C@@H]1NC(=O)[C@@H](NC(=O)[C@H](CO)NC(=O)[C@@H](N)CCCNC(=N)N)CSSC[C@@H](C(=O)O)NC(=O)[C@H]([C@@H](C)O)NC(=O)CNC(=O)[C@@H]2CSSC[C@@H]3NC(=O)[C@H](CCC(N)=O)NC(=O)[C@H](Cc4ccccc4)NC(=O)[C@H](C)NC(=O)[C@H]([C@@H](C)O)NC(=O)[C@H](CSSC[C@H](NC(=O)[C@H](Cc4ccccc4)NC(=O)[C@H](CO)NC(=O)[C@H](CC(C)C)NC(=O)[C@H](CCCNC(=N)N)NC(=O)[C@H](Cc4ccc(O)cc4)NC(=O)[C@H](CCCCN)NC(=O)[C@H](CCSC)NC(=O)[C@H](CO)NC(=O)[C@H](C)NC(=O)[C@H](CCCCN)NC3=O)C(=O)N[C@@H](CCCNC(=N)N)C(=O)N[C@@H](CCCCN)C(=O)N[C@@H]([C@@H](C)O)C(=O)N2)NC(=O)[C@H](CCCNC(=N)N)NC(=O)[C@H](CO)NC(=O)[C@H](CCCCN)NC(=O)[C@@H]2CCCN2C(=O)[C@H]([C@@H](C)CC)NC(=O)[C@H]([C@@H](C)O)NC(=O)[C@H](CC(=O)O)NC1=O [[Ala19]ShK] | 0.237 | 0.379 | 0.472 |  |
| CC[C@H](C)[C@@H]1NC(=O)[C@@H](NC(=O)[C@H](CO)NC(=O)[C@@H](N)CCCNC(=N)N)CSSC[C@@H](C(=O)O)NC(=O)[C@H]([C@@H](C)O)NC(=O)CNC(=O)[C@@H]2CSSC[C@@H]3NC(=O)[C@H](CCC(N)=O)NC(=O)[C@H](Cc4ccccc4)NC(=O)[C@H](C)NC(=O)[C@H]([C@@H](C)O)NC(=O)[C@H](CSSC[C@H](NC(=O)[C@H](Cc4ccccc4)NC(=O)[C@H](CO)NC(=O)[C@H](CC(C)C)NC(=O)[C@H](CCCNC(=N)N)NC(=O)[C@H](Cc4ccc(O)cc4)NC(=O)[C@H](CCCCN)NC(=O)[C@H](CCSC)NC(=O)[C@H](CO)NC(=O)[C@H](Cc4c[nH]cn4)NC(=O)[C@H](CCCCN)NC3=O)C(=O)N[C@@H](CCCNC(=N)N)C(=O)N[C@@H](CCCCN)C(=O)N[C@@H]([C@@H](C)O)C(=O)N2)NC(=O)[C@H](CCCNC(=N)N)NC(=O)[C@H](CCC(=O)O)NC(=O)[C@H](CCCCN)NC(=O)[C@@H]2CCCN2C(=O)[C@H]([C@@H](C)CC)NC(=O)[C@H]([C@@H](C)O)NC(=O)[C@H](CC(=O)O)NC1=O [[Glu10]ShK] | 0.134 | 0.023 |  | 0.055 |
| CCCC[C@@H]1NC(=O)[C@H](CO)NC(=O)[C@H](Cc2c[nH]cn2)NC(=O)[C@H](CCCCN)NC(=O)[C@@H]2CSSC[C@@H]3NC(=O)[C@H]([C@@H](C)O)NC(=O)[C@H](CCCCN)NC(=O)[C@H](CCCNC(=N)N)NC(=O)[C@H](CSSC[C@H](NC(=O)[C@H](CCCNC(=N)N)NC(=O)[C@H](CO)NC(=O)[C@H](CCCCN)NC(=O)[C@@H]4CCCN4C(=O)[C@H]([C@@H](C)CC)NC(=O)[C@H]([C@@H](C)O)NC(=O)[C@H](CC(=O)O)NC(=O)[C@H]([C@@H](C)CC)NC(=O)[C@@H](NC(=O)[C@H](CO)NC(=O)[C@@H](N)CCCNC(=N)N)CSSC[C@@H](C(=O)O)NC(=O)[C@H]([C@@H](C)O)NC(=O)CNC3=O)C(=O)N[C@@H]([C@@H](C)O)C(=O)N[C@@H](C)C(=O)N[C@@H](Cc3ccccc3)C(=O)N[C@@H](CCCCN)C(=O)N2)NC(=O)[C@H](Cc2ccccc2)NC(=O)[C@H](CO)NC(=O)[C@H](CC(C)C)NC(=O)[C@H](CCCNC(=N)N)NC(=O)[C@H](Cc2ccc(O)cc2)NC(=O)[C@H](CCCCN)NC1=O [[Lys16,N1e21]ShK] | 0.13 | 0.249 | 0.848 |  |
